For four molecules, K d, ΔT m and binding results are on record in paper PMC12794142 (2025).

For assay [1], the system named is AT11 (DNA, G4) TGGTGGTGGTTGTTGTGGTGGTGGTGGT
Kind of assay: fluorescence titration (ligand intrinsic emission). To be noted: 70 mM KCl, 20 mM potassium phosphate; for K d: per site.

Assay [2] has the same test system. Kind of assay: CD melting at 262 nm. The following applies: 70 mM KCl, 20 mM potassium phosphate, pH 7.0, 2 μM DNA, 20 μM ligand.
For assay [3] the test system is unchanged. Kind of assay: 1H NMR titration, NOESY. To be noted: 70 mM KCl, 20 mM potassium phosphate; pH 7.0, 90%/10% H2O/D2O, DMSO up to 3%.
Assay [4] has the same test system. Kind of assay: 1H NMR titration. The following applies: 70 mM KCl, 20 mM potassium phosphate; pH 7.0, 90%/10% H2O/D2O; 3'-end G-quartet preferred.

`CC[C@H]1C[C@@H]2C[C@H]3c4[nH]c5ccc(OC)cc5c4CCN(C2)[C@@H]13` yielded a K d in assay [1] of 2.0 ± 0.4 µM. Further, the ΔT m result in assay [2] was “+1 °C”. The binding result in assay [3] is listed as “yes”.

Take `COc1cc2c(cc1OC)-c1c3c(cc4c1[C@H](C2)N(C)CC4)OCO3`: the K d in assay [1] (pH 7.0, 20 °C, 2 μM ligand) is 1.0 ± 0.7 µM. In assay [2] (additional inflection at 87 °C), the ΔT m result is “+3 °C”. In assay [3], the binding entry is given as “yes”.

For the molecule `COc1ccc2c(c1O)-c1c3c(cc4c1[C@H](C2)N(C)CC4)OCO3`, the K d in assay [1] (pH 7.0, 20 °C, 2 μM ligand, average over multiple binding events) was found to be 1.7 ± 0.3 µM. The binding result in assay [4] was “yes”. The ΔT m result in assay [2] was “+1 °C”.

As to `CN1Cc2c(ccc3c2OCO3)[C@@H]2[C@H]1c1cc3c(cc1C[C@@H]2O)OCO3`, the binding result in assay [1] (pH 7.0, 20 °C, 2 μM ligand, alternating trend, not fittable) is recorded as “yes”; in assay [3], “yes”. Further, in assay [2], the ΔT m entry is “+1 °C”.
